≈ marks a conversion by molar mass, not a printed value.
Experiments:
[1] = system: F. proliferatum ATCC 10052; assay: Antifungal susceptibility, broth dilution MIC (CLSI M38-A); assay type: cell-based; conditions: Fusarium proliferatum, ATCC10052; F. proliferatum ATCC 10052; broth dilution, RPMI 1640 with MOPS, 48 hours; read-out: Activity against organisms (MIC50) Fp01
Protocol: (§1) The compounds of Formula 1 were tested for antifungal activity against Candida albicans, C. glabrata, C. krusei, C. tropicalis, Cryptococcus neoformans, Aspergillus fumigatus, A. niger and Fusarium proliferatum. In vitro evaluation of antifungal activity was performed by determining the minimum inhibitory concentration (MIC) following standard methods (CLSI: Reference method for broth dilution antifungal susceptibility testing of yeasts; Approved standard, second edition M27-A2, 2002; CLSI: Reference method for broth dilution antifungal susceptibility testing of filamentous fungi; Approved standard M38-A, 2002). Anti-fungal susceptibility testing of these anti-fungal compounds was done by broth dilution method using RPMI 1640 medium with MOPS buffer. Known anti-fungal agent fluconazole was used as positive control. End points were determined after 48 hours visually and by using spectrophotometer wherever necessary. Different dilutions were tried and various sets of experiments performed. The activity parameters are enumerated in Table 4.

[2] = system: A. fumigatus ATCC 46645; assay: as above; assay type: cell-based; conditions: Aspergillus fumigatus, ATCC46645; A. fumigatus ATCC 46645; broth dilution, RPMI 1640 with MOPS, 48 hours; read-out: Activity against organisms (MIC50) Afm01
Protocol: as §1

[3] = system: A. niger ATCC 16404; assay: as above; assay type: cell-based; conditions: Aspergillus niger, ATCC16404; A. niger ATCC 16404; broth dilution, RPMI 1640 with MOPS, 48 hours; read-out: Activity against organisms (MIC50) An01
Protocol: as §1

[4] = system: C. tropicalis ATCC 750; assay: Antifungal susceptibility, broth dilution MIC (CLSI M27-A2); assay type: cell-based, Candida tropicalis; conditions: Candida tropicalis, ATCC750; C. tropicalis ATCC 750; broth dilution, RPMI 1640 with MOPS, 48 hours; read-out: Activity against organisms (MIC50) Ct01
Protocol: as §1

[5] = system: C. krusei ATCC 6258; assay: as above; assay type: cell-based, Candida krusei; conditions: Pichia kudriavzevii, ATCC6258; C. krusei ATCC 6258; broth dilution, RPMI 1640 with MOPS, 48 hours; read-out: Activity against organisms (MIC50) Ck01
Protocol: as §1

[6] = system: C. neoformans ATCC 34664; assay: as above; assay type: cell-based, Cryptococcus neoformans; conditions: Cryptococcus neoformans, ATCC34664; C. neoformans ATCC 34664; broth dilution, RPMI 1640 with MOPS, 48 hours; read-out: Activity against organisms (MIC50) Cn01
Protocol: as §1

[7] = system: C. albicans ATCC 24433; assay: as above; assay type: cell-based; conditions: Candida albicans, ATCC24433; C. albicans ATCC 24433; broth dilution, RPMI 1640 with MOPS, 48 hours; read-out: Activity against organisms (MIC50) Ca01
Protocol: as §1

[8] = system: C. glabrata ATCC 90030; assay: as above; assay type: cell-based, Candida glabrata; conditions: Nakaseomyces glabratus, ATCC90030; C. glabrata ATCC 90030; broth dilution, RPMI 1640 with MOPS, 48 hours; read-out: Activity against organisms (MIC50) Cg01
Protocol: as §1

MIC50 [1]	MIC50 [2]	MIC50 [3]	MIC50 [4]	MIC50 [5]	MIC50 [6]	MIC50 [7]	MIC50 [8]	SMILES
> 128 µg/mL	> 128 µg/mL	> 128 µg/mL	> 128 µg/mL	> 128 µg/mL	> 128 µg/mL	32 µg/mL (≈ 68.2 µM)	32 µg/mL (≈ 68.2 µM)	CC(=O)Nc1ccc(OCc2cn(CC(O)(Cn3cncn3)c3ccc(F)cc3F)nn2)cc1 (centres unmarked) [Compound 1D-4, 1-(4-(4-Acetylaminophenyloxy)methyl-1H-1,2,3-triazol-1-yl)-2-(2,4-difluorophenyl)-3-(1H-1,2,4-triazol-1-yl)propan-2-ol]
> 128 µg/mL	64 µg/mL (≈ 150 µM)	64 µg/mL (≈ 150 µM)	0.5 µg/mL (≈ 1.17 µM)	8 µg/mL (≈ 18.8 µM)	2 µg/mL (≈ 4.69 µM)	0.12 µg/mL (≈ 0.281 µM)	0.03 µg/mL (≈ 0.0704 µM)	Cc1ccc(OCc2cn(CC(O)(Cn3cncn3)c3ccc(F)cc3F)nn2)cc1 (centres unmarked) [Compound 1D-5, 2-(2,4-Difluorophenyl)-1-(4-(4-methylphenyloxy)methyl-1H-1,2,3-triazol-1-yl)-3-(1H-1,2,4-triazol-1-yl)propan-2-ol]
> 8 µg/mL	> 8 µg/mL	> 8 µg/mL	2 µg/mL (≈ 3.52 µM)	> 8 µg/mL	1 µg/mL (≈ 1.76 µM)	0.5 µg/mL (≈ 0.881 µM)	0.5 µg/mL (≈ 0.881 µM)	Cc1cc(C#N)c(N)c(C#N)c1-c1ccc(OCc2cn(CC(O)(Cn3cncn3)c3ccc(F)cc3F)nn2)cc1 (centres unmarked) [Compound 1D-6, 3-Amino-4′-((1-(2-(2,4-difluorophenyl)-2-hydroxy-3-(1H-1,2,4-triazol-1-yl)propyl)-1H-1,2,3-triazol-4-yl)methoxy)-6-methylbiphenyl-2,4-dicarbonitrile]
> 4 µg/mL	> 4 µg/mL	> 4 µg/mL	> 4 µg/mL	> 4 µg/mL	> 4 µg/mL	> 4 µg/mL	> 4 µg/mL	C#CCOc1ccc(/C=C/C(=O)c2ccc(N3CCN(CCC)CC3)cc2)cc1 [Compound 6A-1, (E)-3-(4-(Prop-2-yn-1-yloxy)phenyl)-1-(4-(4-propylpiperazin-1-yl)phenyl)prop-2-en-1-one]
> 4 µg/mL	> 4 µg/mL	> 4 µg/mL	> 4 µg/mL	> 4 µg/mL	> 4 µg/mL	> 4 µg/mL	> 4 µg/mL	C#CCOc1ccc(/C=C/C(=O)c2ccc(N3CCN(CCCC)CC3)cc2)cc1 [Compound 6A-2]
> 8 µg/mL	> 8 µg/mL	> 8 µg/mL	> 8 µg/mL	> 8 µg/mL	> 8 µg/mL	> 8 µg/mL	> 8 µg/mL	C#CCOc1ccc(/C=C/C(=O)c2ccc(N3CCN(Cc4ccc(OC)cc4)CC3)cc2)cc1 [Compound 6A-4]
> 128 µg/mL	> 128 µg/mL	> 128 µg/mL	> 128 µg/mL	> 128 µg/mL	> 128 µg/mL	32 µg/mL (≈ 95.2 µM)	2 µg/mL (≈ 5.95 µM)	OCc1cn(CC(O)(Cn2cncn2)c2ccc(F)cc2F)nn1 (centres unmarked) [Compound 8A-1, 2-(2,4-Difluorophenyl)-1-(4-(hydroxymethyl)-1H-1,2,3-triazol-1-yl)-3-(1H-1,2,4-triazol-1-yl)propan-2-ol]
> 4 µg/mL	> 4 µg/mL	> 4 µg/mL	> 4 µg/mL	> 4 µg/mL	> 4 µg/mL	> 4 µg/mL	> 4 µg/mL	COc1ccc(/C=C/C(=O)c2ccc(OC)cc2)cc1 [Compound 9A-1]

Continued, compound first:

SMILES	MIC50 [1]	MIC50 [2]	MIC50 [3]	MIC50 [4]	MIC50 [5]	MIC50 [6]	MIC50 [7]	MIC50 [8]
O=C(/C=C/c1ccc(OCc2cn(CC(O)(Cn3cncn3)c3ccc(F)cc3F)nn2)cc1)c1ccc(OCC(O)(Cn2cncn2)c2ccc(F)cc2F)cc1 (centres unmarked) [Compound 1B-10, (E)-1-(4-(2-(2,4-Difluorophenyl)-2-hydroxy-3-(m-1,2,4-triazol-1-yl)propoxy)phenyl)-3-(4-((1-(2-(2,4-difluorophenyl)-2-hydroxy-3-(1H-1,2,4-triazol-1-yl)propyl)-1H-1,2,3-triazol-4-yl)methoxy)phenyl)prop-2-en-1-one]	> 2 µg/mL	> 2 µg/mL	> 2 µg/mL	1 µg/mL (≈ 1.26 µM)	2 µg/mL (≈ 2.51 µM)	1 µg/mL (≈ 1.26 µM)	0.25 µg/mL (≈ 0.314 µM)	0.5 µg/mL (≈ 0.628 µM)
CC/C=C/c1ccc(OCc2cn(CC(O)(Cn3cncn3)c3ccc(F)cc3F)nn2)cc1 (centres unmarked) [Compound 1C-1, (E)-1-(4-((4-(But-1-en-1-yl)phenoxy)methyl)-1H-1,2,3-triazol-1-yl)-2-(2,4-difluorophenyl)-3-(1H-1,2,4-triazol-1-yl)propan-2-ol]	> 16 µg/mL	8 µg/mL (≈ 17.1 µM)	8 µg/mL (≈ 17.1 µM)	0.25 µg/mL (≈ 0.536 µM)	2 µg/mL (≈ 4.29 µM)	0.12 µg/mL (≈ 0.257 µM)	0.03 µg/mL (≈ 0.0643 µM)	0.015 µg/mL (≈ 0.0322 µM)
CCCC/C=C/c1ccc(OCc2cn(CC(O)(Cn3cncn3)c3ccc(F)cc3F)nn2)cc1 (centres unmarked) [Compound 1C-2, (E)-2-(2,4-Difluorophenyl)-1-(4-((4-(n-hex-1-en-1-yl)phenoxy)methyl)-1H-1,2,3-triazol-1-yl)-3-(1H-1,2,4-triazol-1-yl)propan-2-ol]	> 4 µg/mL	4 µg/mL (≈ 8.09 µM)	4 µg/mL (≈ 8.09 µM)	1 µg/mL (≈ 2.02 µM)	2 µg/mL (≈ 4.04 µM)	0.25 µg/mL (≈ 0.506 µM)	0.12 µg/mL (≈ 0.243 µM)	0.06 µg/mL (≈ 0.121 µM)
CCCCCCCCCC/C=C/c1ccc(OCc2cn(CC(O)(Cn3cncn3)c3ccc(F)cc3F)nn2)cc1 (centres unmarked) [Compound 1C-3, (E)-2-(2,4-Difluorophenyl)-1-(4-((4-(n-dodec-1-en-1-yl)phenoxy)methyl)-1H-1,2,3-triazol-1-yl)-3-(1H-1,2,4-triazol-1-yl)propan-2-ol]	> 2 µg/mL	> 2 µg/mL	> 2 µg/mL	> 2 µg/mL	> 2 µg/mL	0.5 µg/mL (≈ 0.864 µM)	1 µg/mL (≈ 1.73 µM)	0.12 µg/mL (≈ 0.207 µM)
C/C=C/c1ccc(OCc2cn(CC(O)(Cn3cncn3)c3ccc(F)cc3F)nn2)cc1 (centres unmarked) [Compound 1C-4, (E)-2-(2,4-Difluorophenyl)-1-(4-((4-(prop-1-en-1-yl)phenoxy)methyl)-1H-1,2,3-triazol-1-yl)-3-(1H-1,2,4-triazol-1-yl)propan-2-ol]	> 32 µg/mL	32 µg/mL (≈ 70.7 µM)	64 µg/mL (≈ 141 µM)	0.12 µg/mL (≈ 0.265 µM)	8 µg/mL (≈ 17.7 µM)	0.5 µg/mL (≈ 1.11 µM)	0.03 µg/mL (≈ 0.0663 µM)	0.06 µg/mL (≈ 0.133 µM)
OC(Cn1cncn1)(Cn1cc(COc2ccccc2)nn1)c1ccc(F)cc1F (centres unmarked) [Compound 1D-1, 2-(2,4-Difluorophenyl)-1-(4-phenyloxymethyl-1H-1,2,3-triazol-1-yl)-3-(1H-1,2,4-triazol-1-yl)propan-2-ol]	> 128 µg/mL	> 128 µg/mL	> 128 µg/mL	2 µg/mL (≈ 4.85 µM)	> 128 µg/mL	4 µg/mL (≈ 9.7 µM)	0.25 µg/mL (≈ 0.606 µM)	0.25 µg/mL (≈ 0.606 µM)
O=Cc1ccc(OCc2cn(CC(O)(Cn3cncn3)c3ccc(F)cc3F)nn2)cc1 (centres unmarked) [Compound 1D-2, 4-((1-(2-(2,4-difluorophenyl)-2-hydroxy-3-(1H-1,2,4-triazol-1-yl)propyl)-1H-1,2,3-triazol-4-yl)methoxy)benzaldehyde]	> 128 µg/mL	> 128 µg/mL	> 128 µg/mL	2 µg/mL (≈ 4.54 µM)	64 µg/mL (≈ 145 µM)	4 µg/mL (≈ 9.08 µM)	0.5 µg/mL (≈ 1.14 µM)	1 µg/mL (≈ 2.27 µM)
CC(=O)c1ccc(OCc2cn(CC(O)(Cn3cncn3)c3ccc(F)cc3F)nn2)cc1 (centres unmarked) [Compound 1D-3, 1-(4-(4-Acetylphenyloxy)methyl-1H-1,2,3-triazol-1-yl)-2-(2,4-difluorophenyl)-3-(1H-1,2,4-triazol-1-yl)propan-2-ol]	> 128 µg/mL	> 128 µg/mL	> 128 µg/mL	4 µg/mL (≈ 8.8 µM)	64 µg/mL (≈ 141 µM)	4 µg/mL (≈ 8.8 µM)	0.5 µg/mL (≈ 1.1 µM)	1 µg/mL (≈ 2.2 µM)

From patent US9540350B2, “1-substituted, 4-(substituted phenoxymethyl)-1,2,3-triazole compounds with antifungal properties and methods for preparation thereof” (FDC LIMITED, priority 2013, dated 2017)
